Assay results: patent publication US8822691B2, “Pesticidal carboxamides” (Bayer CropScience AG, priority 2009, dated 2014)
Several values for one entry are separate records, joined by “and”; a condition that tells them apart may be missing. Equal entries are not always repeated.

Experiments:
Format in all cases: in vivo
Aulacophora femoralis = assay: Test against cucurbit leaf beetle (Aulacophora femoralis), leaf dip; details: active compound concentration of 500 ppm, second instar larvae on cucumber leaves, after 7 days; for pest or weed control at 500 ppm: Aulacophora, foliar, 168 h, read-out: insecticidal activity
Protocol: (§1) Unless not mentioned otherwise, the test solutions were prepared as follows:
(§2) Containing as solvent: Dimethylformamide, 3 parts by weight; and as emulsifier: Polyoxyethylene alkyl phenyl ether, 1 part by weight
(§3) To prepare the test solution, 1 part by weight of an active compound is mixed with the above-mentioned amount of solvent containing the above-mentioned amount of emulsifier, and the mixture is diluted with water to the desired concentration.
Leaves of cucumber were immersed in the test solution at the appropriate concentration, and the leaves were dried in air. The leaves were then put in a plastic cup containing sterilized black soil and five Aulacophora femoralis at second instar larvae were released in the cup. The cups were placed in a temperature-controlled chamber at 25° C. After 7 days, the number of dead larvae was counted, and thus the insecticidal activity was calculated. An insecticidal activity of 100% means that all larvae were killed, whereas an insecticidal activity of 0% means that no larva was killed.

Spodoptera litura = assay: Test against tobacco cutworm (Spodoptera litura) larvae, leaf dip; details: active compound concentration of 100 ppm, third instar larvae on sweet potato leaves, after 7 days; for pest or weed control at 100 ppm: foliar, 168 h, read-out: insecticidal activity
Protocol: as §1, §2, §3
Leaves of sweet potato were immersed in the test solution at the appropriate concentration, and the leaves were dried in air. The leaves were then placed in a petri dish having a diameter of 9 cm, and ten Spodoptera litura at third instar larvae were released therein. The petri dishes were placed in a temperature-controlled chamber at 25° C. After 2 days and 4 days more sweet potato leaves were added. After 7 days, the number of dead larvae was counted to calculate the insecticidal activity. An insecticidal activity of 100% means that all larvae were killed, whereas an insecticidal activity of 0% means that no larva was killed. In the current test, the results of two petri dishes for each treatment were averaged.

Boophilus microplus [1] = assay: Boophilus microplus (dip); details: application rate of 100 ppm; dip of adult engorged female ticks for one minute; after 7 days
Protocol: Solvent: Dimethylsulfoxid
To produce a suitable preparation of active compound, 10 mg of active compound are dissolved in 0.5 ml solvent, and the concentrate is diluted with water to the desired concentration. Eight to ten adult engorged female Boophilus microplus ticks are placed in perforated plastic beakers and immersed in aqueous compound solution for one minute. Ticks are transferred to a filter paper in a plastic tray. Egg deposition of fertile eggs is monitored after. After 7 days mortality in % is determined. 100% means that all the ticks have been killed; 0% means that none of the ticks have been killed.

Tetranychus urticae = assay: Test against two-spotted spider mite (Tetranychus urticae), spray; details: active compound concentration of 500 ppm, adult mites on kidney bean, after 7 days; for pest or weed control at 500 ppm: Tetranychus urticae, 168 h, read-out: acaricidal activity
Protocol: as §1, §2, §3
50 to 100 adult mites of Tetranychus urticae were inoculated to leaves of kidney bean at two-leaf stage planted in a pot of 6 cm in diameter. After one day, test solution at the appropriate concentration was sprayed thereon in a sufficient amount using a spray gun. After the spraying, the plant pot was placed inside a greenhouse, and after 7 days, the acaricidal activity was calculated. An acaricidal activity of 100% means that all mites were killed, whereas an acaricidal activity of 0% means that no mite was killed.

Ctenocephalides felis = assay: Ctenocephalides felis-test (CTECFE); details: adult unfed fleas, after 2 days; for activity (mortality): application rate of 100 ppm in cattle blood; for mortality at 100 ppm: Ctenocephalides felis, in Bos taurus, 48 h, read-out: activity (mortality), application rate of 100 ppm in cattle blood
Protocol: (§4) Solvent: dimethyl sulfoxide
To produce a suitable preparation of active compound, 10 mg of active compound are dissolved in 0.5 ml solvent, and the concentrate is diluted with cattle blood to the desired concentration. Approximately 20 adult unfed (Ctenocepahlides felis) are placed in flea chambers. The blood chamber, sealed with parafilm on the bottom, are filled with cattle blood supplied with compound solution and placed on top of the flea chamber, so that the fleas are able to suck the blood. The blood chamber is heated to 37° C. whereas the flea chamber is kept at room temperature. After 2 days mortality in % is determined. 100% means that all the fleas have been killed; 0% means that none of the fleas have been killed.

Lucilia cuprina = Lucilia cuprina (48 h) larval test; details: for mortality at 100 ppm: Lucilia cuprina, 48 h, read-out: activity (larval mortality)
Protocol: Species: Lucilia cuprina 1st instar larvae (age 24 hrs)
as §4
10 mg active compound are dissolve in 0.5 ml dimethyl sulfoxide. Serial dilutions are made to obtain the desired rates. Approximately 20 Lucilia cuprina 1st instar larvae are transferred into a test tube containing 1 cm^3 of minced horse meat and 0.5 ml aqueous dilution of test compound. After 48 hrs percentage of larval mortality are recorded. 100% efficacy all larvae are killed, % efficacy normally developed larvae after 48 hrs.

Boophilus microplus [2] = assay: Boophilus microplus-test (injection); details: Rhipicephalus microplus, 168 h, read-out: activity (mortality in %; 100% means that all eggs are infertile)
Protocol: as §4
To produce a suitable preparation of active compound, 10 mg of active compound are dissolved in 0.5 ml solvent, and the concentrate is diluted with solvent to the desired concentration. Five adult engorged female ticks (Boophilus microplus) are injected with 1 μl compound solution into the abdomen. Ticks are transferred into replica plates and incubated in a climate chamber for a period of time. Egg deposition of fertile eggs is monitored.
After 7 days mortality in % is determined. 100% means that all eggs are infertile; 0% means that all eggs are fertile.

Musca domestica = assay: Musca domestica-test; details: for activity (mortality): application rate of 100 ppm, adults, after 2 days; for mortality at 100 ppm: Musca domestica, 48 h, read-out: activity (mortality)
Protocol: as §4
To produce a suitable preparation of active compound, 10 mg of active compound are dissolved in 0.5 ml solvent, and the concentrate is diluted with water to the desired concentration. Prior to the assay, a piece of kitchen sponge is soaked with a mixture of sugar and compound solution and placed into a container. 10 adults (Musca domestica) are placed into the container and closed with a perforated lid. After 2 days mortality in % is determined. 100% means that all the flies have been killed; 0% means that none of the flies have been killed.

Row | Structure (SMILES) | insecticidal activity (Aulacophora femoralis) | insecticidal activity (Spodoptera litura) | acaricidal activity (Tetranychus urticae) | activity (mortality) (Ctenocephalides felis) | mortality at 100 ppm (Lucilia cuprina) | mortality at 0.02 mg (Boophilus microplus [2]) | pest or weed control at 500 ppm (Aulacophora femoralis) | pest or weed control at 100 ppm (Spodoptera litura) | other results
1 | N#Cc1ccc2cc(C(=O)Nc3c(I)cc(C(F)(C(F)(F)F)C(F)(F)F)cc3I)ccc2n1 [2-69] | 100% | 100% | 100% |  |  |  |  |  | activity (mortality) (Boophilus microplus [1]): 100%
2 | Cc1cc(C(F)(C(F)(F)F)C(F)(F)F)cc(Br)c1NC(=O)c1ccc2nc(C#N)ccc2c1 [2-40] | 100% | 100% | 100% | 95% |  |  |  |  | 
3 | Cc1cc(C(F)(C(F)(F)F)C(F)(F)F)cc(C)c1NC(=O)c1cc(Cl)c2ncc(Cl)cc2c1 [2-214, 3,8-dichloro-N-[4-(1,1,1,2,3,3,3-heptafluoropropan-2-yl)-2,6-dimethylphenyl]quinoline-6-carboxamide] |  |  |  |  | 90% | 100% | 100% | 100% | 
4 | O=C(Nc1c(Br)cc(C(F)(C(F)(F)F)C(F)(F)C(F)(F)F)cc1Br)c1ccc2ncccc2c1 (centres unmarked) [2-108] | 100% | 100% |  | 80% and 95% |  |  |  |  | activity (mortality) (Musca domestica): 80%
5 | CCc1cc(C(F)(C(F)(F)F)C(F)(F)F)cc(Br)c1NC(=O)c1ccc2nc(C#N)ccc2c1 [2-49] | 100% | 100% | 100% | 95% |  |  |  |  | 
6 | CCc1cc(C(F)(C(F)(F)F)C(F)(F)C(F)(F)F)cc(C)c1NC(=O)c1ccc2ncccc2c1 (centres unmarked) [2-88] | 100% | 100% |  | 95% |  |  |  |  | 
7 | N#Cc1ccc2cc(C(=O)Nc3c(Br)cc(C(F)(F)F)cc3Br)ccc2n1 [2-3] | 100% |  |  | 90% |  |  |  |  | activity (larval mortality) (Lucilia cuprina; application rate of 100 ppm, 1st instar larvae, after 48 hrs): 80%
8 | Cc1cc(C(F)(C(F)(F)F)C(F)(F)F)cc(C)c1NC(=O)c1ccc2nc(C#N)ccc2c1 [Compound No. 2-20, 2-cyano-N-[4-(1,1,1,2,3,3,3-heptafluoropropan-2-yl)-2,6-dimethylphenyl]quinoline-6-carboxamide] |  |  |  |  | 100% | 100% | 100% | 100% | mortality at 100 ppm (Ctenocephalides felis): 100%; mortality at 100 ppm (Musca domestica): 95%
9 | O=C(Nc1c(I)cc(C(F)(C(F)(F)F)C(F)(F)C(F)(F)F)cc1OC(F)F)c1ccc2ncccc2c1 (centres unmarked) [Compound No. 2-174, N-[2-(difluoromethoxy)-6-iodo-4-(1,1,1,2,3,3,4,4,4-nonafluorobutan-2-yl)phenyl]quinoline-6-carboxamide] |  |  |  |  | 100% | 100% | 100% | 100% | mortality at 100 ppm (Ctenocephalides felis): 100%; mortality at 100 ppm (Musca domestica): 100%; pest or weed control at 500 ppm (Tetranychus urticae): 100%
10 | Cc1cc(C(F)(C(F)(F)F)C(F)(F)F)cc(C)c1NC(=O)c1ccc2ncc(Cl)cc2c1 [Compound No. 2-213, 3-chloro-N-[4-(1,1,1,2,3,3,3-heptafluoropropan-2-yl)-2,6-dimethylphenyl]quinoline-6-carboxamide] |  |  |  |  | 100% | 100% | 100% | 100% | mortality at 100 ppm (Musca domestica): 80%
11 | CCc1cc(C(F)(C(F)(F)F)C(F)(F)C(F)(F)F)cc(C)c1NC(=O)c1ccc2nc(C#N)ccc2c1 (centres unmarked) [2-90] | 100% | 100% | 100% |  |  |  |  |  | activity (mortality) (Musca domestica): 80%
12 | N#Cc1ccc2cc(C(=O)Nc3c(Cl)cc(C(F)(C(F)(F)F)C(F)(F)F)cc3OC(F)F)ccc2n1 [Compound No. 2-231, N-[2-chloro-6-(difluoromethoxy)-4-(1,1,1,2,3,3,3-heptafluoropropan-2-yl)phenyl]-2-cyanoquinoline-6-carboxamide] |  |  |  |  |  |  | 100% | 100% | pest or weed control at 500 ppm (Tetranychus urticae): 100%
13 | CCc1cc(C(F)(C(F)(F)F)C(F)(F)Br)cc(C)c1NC(=O)c1ccc2nc(C#N)ccc2c1 (centres unmarked) [2-194] | 100% | 100% | 100% |  |  |  |  |  | 
14 | N#Cc1ccc2cc(C(=O)Nc3c(Br)cc(C(F)(C(F)(F)F)C(F)(F)F)cc3C(F)(F)F)ccc2n1 [2-249] | 100% | 100% | 100% |  |  |  |  |  | 
15 | O=C(Nc1c(Br)cc(C(F)(C(F)(F)F)C(F)(F)Br)cc1OC(F)F)c1ccc2c(ccc[n+]2[O-])c1 (centres unmarked) [Compound No. 2-202, N-[2-bromo-4-(1-bromo-1,1,2,3,3,3-hexafluoropropan-2-yl)-6-(difluoromethoxy)phenyl]quinoline-6-carboxamide 1-oxide] |  |  |  |  | 100% | 100% | 100% |  | mortality at 100 ppm (Ctenocephalides felis): 95%; mortality at 100 ppm (Musca domestica): 100%; pest or weed control at 500 ppm (Tetranychus urticae): 100%
16 | CCc1cc(C(F)(C(F)(F)F)C(F)(F)C(F)(F)F)cc(C)c1NC(=O)c1ccc2ncsc2c1 (centres unmarked) [4-33] | 100% | 100% | 100% |  |  |  |  |  | 
17 | O=C(Nc1c(Br)cc(C(F)(C(F)(F)F)C(F)(F)Br)cc1OC(F)F)c1ccc2ncccc2c1 (centres unmarked) [Compound No. 2-201, N-[2-bromo-4-(1-bromo-1,1,2,3,3,3-hexafluoropropan-2-yl)-6-(difluoromethoxy)phenyl]quinoline-6-carboxamide] |  |  |  |  | 100% | 100% | 100% | 100% | mortality at 100 ppm (Ctenocephalides felis): 100%; mortality at 100 ppm (Musca domestica): 100%; pest or weed control at 500 ppm (Tetranychus urticae): 100%
18 | CCc1cc(C(n2cc(Cl)cn2)(C(F)(F)F)C(F)(F)F)cc(C)c1NC(=O)c1ccc2nc(C#N)ccc2c1 [2-83] | 100% | 100% | 100% |  |  |  |  |  | 
19 | N#Cc1ccc2cc(C(=O)Nc3c(Br)cc(C4(F)C(F)(F)C(F)(F)C(F)(F)C(F)(F)C4(F)F)cc3Br)ccc2n1 [2-133] | 100% | 100% | 100% | 90% |  |  |  |  | 
